Like-named read-outs stand apart in the source and are kept apart here.
Legend:
[1] = test system: BE cells; test: Test A: in vitro cytotoxicity, clonogenic survival of BE cells; type: cell-based; details: 2 h drug treatment, colonies after 10 days, concentration at which there is a 1% cell survival
Description: (§1) Test A: In Vitro Cytotoxicity (Clonogenic Survival of HT-29 and BE Cells):
(§2) The human colon carcinoma cell line HT-29 was obtained from the American Type Culture Collection (ATCC), and the BE cell line was provided by Dr. D. Ross, University of Colorado. A modification of the procedure described by Miribelli et al Cancer Research, 1985, 45, 32–39 was used to determine the clonogenic survival of the cells. HT-29 and BE cells in exponential growth were suspended in unsupplemented Eagles MEM medium (10 mL) at a final density of 1.7–2×10^5 cells/mL. Unsupplemented medium contains Minimum Essential Medium (Gibco) and HEPES (0.02 M). The drug stock solutions (0.1–40 mM) were prepared using either ethanol or dimethyl sulfoxide as solvent. The maximum amount of DMSO or ethanol used in the drug treatments was 1% of the total volume. Appropriate volumes (6.5 to 100 μL) of the drug stock solution were added to five vials of the cell suspensions, to give five different final drug concentrations, and 100 μL of solvent was added to a sixth vial for a control. The treated cells were incubated for 2 h (37° C., 5% CO2). The cells were spun down and rinsed three times with supplemented medium (3 mL) and then diluted in 5 mL of supplemented medium. Supplemented medium is prepared by adding Fetal Bovine Serum (10%), gentamicin (0.05 mg/mL), L-glutamine (0.03 mg/mL), and sodium pyruvate (0.1 mM) to unsupplemented medium. The cells were counted using a Coulter Counter and then plated at 2–3 different densities for each drug concentration and incubated for 10 days. The colonies were stained with 0.5% crystal violet in 95% ethanol and those colonies comprised of 50 or more cells were counted using a microscope and pen-style counter. The LC99 of each compound (the concentration at which there is a 1% cell survival) was determined by plotting the log surviving fraction vs. drug concentration.

[2] = test system: HT-29 cells; test: Test A: in vitro cytotoxicity, clonogenic survival of HT-29 cells; type: cell-based, human; details: 2 h drug treatment, colonies after 10 days, concentration at which there is a 1% cell survival
Description: as §1, §2

[3] = test system: IGROV (ovarian); test: Growth inhibition, MTT assay, IGROV; type: cell-based, human; details: 72-h drug exposure, read-out: IC50 growth inhibitory activity
Description: (§3) The growth inhibitory properties of representative compounds of the invention were also determined by evaluating their growth inhibitory activity against a series of human tumor cell lines using a 72-h drug exposure. Cell counts were measured using the MTT assay.

[4] = test system: MDA231 (breast); test: Growth inhibition, MTT assay, MDA231; type: cell-based, human; details: read-out: IC50 growth inhibitory activity
Description: as §3

[5] = test system: human tumor cell lines; test: Growth inhibition, MTT assay, series of human tumor cell lines (all cell lines); type: cell-based; details: all cell lines of Table 2, 72-h drug exposure
Description: as §3

[6] = test system: PaCa-2 (pancreas); test: Growth inhibition, MTT assay, PaCa-2; type: cell-based, human; details: PaCa-2, 72-h drug exposure; for IC50: read-out: IC50 growth inhibitory activity
Description: as §3

[7] = test system: HT-29 (colon); test: Growth inhibition, MTT assay, HT-29; type: cell-based, human; details: HT-29, 72-h drug exposure, read-out: IC50 growth inhibitory activity
Description: as §3

[8] = test system: A498 (kidney); test: Growth inhibition, MTT assay, A498; type: cell-based, human; details: A498, 72-h drug exposure, read-out: IC50 growth inhibitory activity
Description: as §3

[9] = test system: UMUC3 (bladder); test: Growth inhibition, MTT assay, UMUC3; type: cell-based, human; details: UMUC3, 72-h drug exposure; for IC50: read-out: IC50 growth inhibitory activity
Description: as §3

[10] = test system: A549 (lung); test: Growth inhibition, MTT assay, A549; type: cell-based, human; details: A549, 72-h drug exposure, read-out: IC50 growth inhibitory activity
Description: as §3

[11] = test system: PC-3 (prostate); test: Growth inhibition, MTT assay, PC-3; type: cell-based, human; details: PC-3, 72-h drug exposure, read-out: IC50 growth inhibitory activity
Description: as §3

[12] = Releasing group activity: chemical reduction with sodium dithionite monitored by 31P NMR; type: physicochemical; details: sodium dithionite 3 equiv, 3:4 CH3CN:0.4 M cacodylate buffer, pH ~7.4, 37° C.
Description: (§4) The quinone was dissolved in CH3CN (0.3 mL, or THF for 16a) and the activating agent (glutathione, or sodium dithionite) was dissolved in cacodylate buffer (0.4 mL, 0.4 M, pH 7.7). The buffer solution was added to the organic solution and the pH of the mixture was adjusted to ˜7.4. The reaction mixture was transferred to a 5-mm NMR tube, and the data acquisition was started (pulse delay 30 μs). Spectra were taken every 2.5 minutes for 0.5 h, then every 5 min for 0.5 h, then every 10 min for 1 h, and time points for each spectrum were assigned from the initiation of the reaction. Chemical shifts are reported relative to the TPPO reference. The temperature of the probe was maintained at 37° C., if necessary, using the Bruker variable temperature unit. The relative concentrations of the intermediates were determined by measuring the peak areas.
Naphthoquinone 15a was reduced with sodium dithionite (3 equiv, 3:4 CH3CN:0.4 M cacodylate buffer, pH˜7.4, 37° C.), and the reaction was followed by ^31P NMR. The resonance for quinone […] at −5.3 ppm disappeared within 5 minutes and was replaced by the resonance for the corresponding phosphoramide mustard at −12.2 ppm.

[13] = Activation by glutathione monitored by 31P NMR; type: physicochemical
Description: as §4
Thus, the following study was conducted to determine whether glutathione would activate compounds of formula I in a similar way. Glutathione, the primary non-protein intracellular thiol, is responsible for maintaining the cellular redox environment and removing potential electrophilic cytotoxins. […] Thus, the reaction of 15a with glutathione (3 equiv, 1:1.3 CH3CN:0.4 M cacodylate buffer, pH˜7.5, RT) was monitored by ^31P NMR.

[14] = Homo sapiens, MDA-MB-231, MDA231, 72-h drug exposure

Q: For `O=C1C=C(COP(=O)(NCCCl)NCCCl)C(=O)c2ccccc21` [Compound 17, 2-(1,4-Naphthoquinonyl)methyl bis[N-(2-chloroethyl)] phosphorodiamidate], which LC99 [1] is on record?
A: 7.8 µM

Q: And the LC99 [2]?
A: 14 µM

Q: Which LC99 [1] does the source give for `CC1=C(COP(N)(=O)N(CCBr)CCBr)C(=O)c2ccccc2C1=O` (stereo not shown) [Compound 16b, 2-(3-Methyl-1,4-naphthoquinonyl)methyl N,N-bis(2-bromoethyl) phosphorodiamidate] here?
A: 1.2 µM

Q: What about the LC99 [2] of the same compound?
A: 1.7 µM

Q: What does the source list for `CN(CCBr)P(=O)(OCC1=CC(=O)c2ccccc2C1=O)N(C)CCBr` [Compound 40a, 2-(1,4-Naphthoquinonyl)methyl bis[N-methyl-N-(2-bromoethyl)]phosphorodiamidate]?
A: IC50 [3]: 2050 nM; IC50 ([4]; MDA231, 72-h drug exposure): 3230 nM; IC50 in words, against all cell lines [5]: low micromolar range; IC50 [6]: 2300 nM; IC50 [7]: 5920 nM; IC50 [8]: 4460 nM; IC50 [9]: 9950 nM; LC99 [1]: 1.2 µM; IC50 [10]: 11200 nM; LC99 [2]: 4.5 µM; IC50 [11]: 2560 nM

Q: For `CN(CCCl)P(=O)(OCC1=CC(=O)c2ccccc2C1=O)N(C)CCCl` [Compound 40c, 2-(1,4-Naphthoquinonyl)methyl bis[N-methyl-N-(2-chloroethyl)]phosphorodiamidate], which LC99 [1] is on record?
A: 2.8 µM

Q: What about the LC99 [2] of the same compound?
A: 4.5 µM

Q: Which results are given for “3-(5-Methoxy-1-methyl-4,7-indolequinonyl)methyl N,N-bis(2-bromoethyl)phosphorodiamidate [Compound 4]”?
A: IC50 ([4]; MDA231, 72-h drug exposure): 194 nM; IC50 [6]: 215 nM; IC50 [7]: 241 nM; IC50 [8]: 998 nM; IC50 [9]: 10 nM; IC50 [10]: 398 nM; IC50 [11]: 649 nM

Q: Which IC50 ([3]; Homo sapiens) does the source give for `COC1=CC(=O)c2c(cc(COP(=O)(N(C)CCBr)N(C)CCBr)n2C)C1=O` [Compound 5, 2-(5-Methoxy-1-methyl-4,7-indolequinonyl)methyl bis[N-methyl-N-(2-bromoethyl)]phosphorodiamidate] here?
A: 7590 nM

Q: And the IC50 [4, 14]?
A: 210 nM

Q: What about the IC50 ([6]; Homo sapiens) of the same compound?
A: 13 nM

Q: And the “IC50 values in words” value [6]?
A: low nanomolar range

Q: What about the IC50 ([7]; Homo sapiens) of the same compound?
A: 93 nM

Q: And the IC50 ([8]; Homo sapiens)?
A: 2650 nM

Q: What about the IC50 ([9]; Homo sapiens) of the same compound?
A: 14 nM

Q: What about the “IC50 values in words” value [9] of the same compound?
A: low nanomolar range

Q: What about the IC50 ([10]; Homo sapiens) of the same compound?
A: 260 nM

Q: What about the IC50 ([11]; Homo sapiens) of the same compound?
A: 420 nM

Q: What does the source list for `NP(=O)(OCC1=CC(=O)c2ccccc2C1=O)N(CCCl)CCCl` (stereo not shown) [Compound 15a, 2-(1,4-Naphthoquinonyl)methyl N,N-bis(2-chloroethyl) phosphorodiamidate]?
A: LC99 [1]: 13 µM; time until quinone resonance disappeared and was replaced by phosphoramide mustard resonance [12]: ≤ 5 min; LC99 [2]: 11 µM; time until quinone resonance disappeared and was replaced by phosphorodiamidate anion resonance ([13]; glutathione 3 equiv, 1:1.3 CH3CN:0.4 M cacodylate buffer, pH ~7.5, RT): ≤ 4 min; activation with one equivalent of glutathione, in words ([13]; only one equivalent of glutathione, compared with 3 equiv): essentially identical

Q: For `CSC1=C(COP(N)(=O)N(CCCl)CCCl)C(=O)c2ccccc2C1=O` (stereo not shown) [Compound 15c, 2-(3-Thiomethyl-1,4-naphthoquinonyl)methyl N,N-bis(2-chloroethyl)phosphorodiamidate], which LC99 [1] is on record?
A: 5.9 µM

Q: And the LC99 [2]?
A: 4.2 µM

Q: With `CC1=C(COP(N)(=O)N(CCCl)CCCl)C(=O)c2ccccc2C1=O` (stereo not shown) [Compound 15b, 2-(3-Methyl-1,4-naphthoquinonyl)methyl N,N-bis(2-chloroethyl) phosphorodiamidate] as the compound, how does the LC99 [1] read?
A: 1.0 µM

Q: And the LC99 [2]?
A: 2.1 µM

Q: Which LC99 [1] does the source give for `CC1=C(COP(=O)(N(C)CCBr)N(C)CCBr)C(=O)c2ccccc2C1=O` [Compound 40b, 2-(3-Methyl-1,4-naphthoquinonyl)methyl bis[N-methyl-N-(2-bromoethyl)] phosphorodiamidate] here?
A: 0.44 µM

Q: What about the LC99 [2] of the same compound?
A: 1.5 µM

Q: With `COC1=CC(=O)c2c(c(COP(=O)(N(C)CCBr)N(C)CCBr)cn2C)C1=O` [Compound 47, 3-(5-Methoxy-1-methyl-4,7-indolequinonyl)-methyl bis[N-methyl-N-(2-bromoethyl)] phosphorodiamidate] as the compound, how does the IC50 ([3]; Homo sapiens) read?
A: 494 nM

Q: And the IC50 [4, 14]?
A: 40 nM

Q: And the IC50 ([6]; Homo sapiens)?
A: 25 nM

Q: And the “IC50 values in words” value [6]?
A: low nanomolar range

Q: And the IC50 ([7]; Homo sapiens)?
A: 65 nM

Q: What about the IC50 ([8]; Homo sapiens) of the same compound?
A: 344 nM

Q: And the IC50 ([9]; Homo sapiens)?
A: 2 nM

Q: And the “IC50 values in words” value [9]?
A: low nanomolar range

Q: What about the LC99 [1] of the same compound?
A: 0.14 µM

Q: And the IC50 ([10]; Homo sapiens)?
A: 23 nM

Q: And the LC99 [2]?
A: 0.07 µM

Q: What about the IC50 ([11]; Homo sapiens) of the same compound?
A: 66 nM

Q: Which IC50 [3] does the source give for `COC1=CC(=O)c2c(cc(COP(N)(=O)N(CCCl)CCCl)n2C)C1=O` (stereo not shown) [Compound 6a, 2-(5-Methoxy-1-methyl-4,7-indolequinonyl)methyl N,N-bis(2-chloroethyl)phosphorodiamidate] here?
A: 1700 nM

Q: And the IC50 ([4]; MDA231, 72-h drug exposure)?
A: 3500 nM

Q: What about the “IC50 values in words” value [6] of the same compound?
A: low nanomolar range

Q: And the IC50 [6]?
A: 6 nM

Q: And the IC50 [7]?
A: 340 nM

Q: And the IC50 [8]?
A: 862 nM

Q: What about the “IC50 values in words” value [9] of the same compound?
A: low nanomolar range

Q: What about the IC50 [9] of the same compound?
A: 22 nM

Q: And the IC50 [10]?
A: 203 nM

Q: What about the IC50 [11] of the same compound?
A: 170 nM

Q: Which results are given for `COC1=CC(=O)c2c(cc(COP(N)(=O)N(CCBr)CCBr)n2C)C1=O` (stereo not shown) [Compound 6b, 2-(5-Methoxy-1-methyl-4,7-indolequinonyl)methyl N,N-bis(2-bromoethyl)phosphorodiamidate]?
A: IC50 [3]: 1470 nM; IC50 ([4]; MDA231, 72-h drug exposure): 1630 nM; IC50 values in words [6]: low nanomolar range; IC50 [6]: 35 nM; IC50 [7]: 61 nM; IC50 [8]: 199 nM; IC50 values in words [9]: low nanomolar range; IC50 [9]: 1 nM; IC50 [10]: 9 nM; IC50 [11]: 195 nM

Q: What does the source list for `NP(=O)(OCC1=C(Br)C(=O)c2ccccc2C1=O)N(CCCl)CCCl` (stereo not shown) [Compound 15d, 2-(3-Bromo-1,4-naphthoquinonyl)methyl N,N-bis(2-chloroethyl)phosphorodiamidate]?
A: LC99 [1]: 3.3 µM; LC99 [2]: 4.1 µM

Reference: patent publication US7304046B2, “Phosphoramide compounds” (priority 1999, dated 2007)
